For 18 compounds, IC50 results are on record in patent US20260285875A1, “INHIBITORS OF PARG” (858 Therapeutics, Inc., priority 2023, published 2026).

Each structure is given as a SMILES string. Where only a bound is given, the exact number is not on record here.

This assay deals with T1, cellular PARG (Homo sapiens, UniProt Q86W56).
T1 construct: endogenous in cells; host or cells: HeLa
T1 sequence (Q86W56 whole entry): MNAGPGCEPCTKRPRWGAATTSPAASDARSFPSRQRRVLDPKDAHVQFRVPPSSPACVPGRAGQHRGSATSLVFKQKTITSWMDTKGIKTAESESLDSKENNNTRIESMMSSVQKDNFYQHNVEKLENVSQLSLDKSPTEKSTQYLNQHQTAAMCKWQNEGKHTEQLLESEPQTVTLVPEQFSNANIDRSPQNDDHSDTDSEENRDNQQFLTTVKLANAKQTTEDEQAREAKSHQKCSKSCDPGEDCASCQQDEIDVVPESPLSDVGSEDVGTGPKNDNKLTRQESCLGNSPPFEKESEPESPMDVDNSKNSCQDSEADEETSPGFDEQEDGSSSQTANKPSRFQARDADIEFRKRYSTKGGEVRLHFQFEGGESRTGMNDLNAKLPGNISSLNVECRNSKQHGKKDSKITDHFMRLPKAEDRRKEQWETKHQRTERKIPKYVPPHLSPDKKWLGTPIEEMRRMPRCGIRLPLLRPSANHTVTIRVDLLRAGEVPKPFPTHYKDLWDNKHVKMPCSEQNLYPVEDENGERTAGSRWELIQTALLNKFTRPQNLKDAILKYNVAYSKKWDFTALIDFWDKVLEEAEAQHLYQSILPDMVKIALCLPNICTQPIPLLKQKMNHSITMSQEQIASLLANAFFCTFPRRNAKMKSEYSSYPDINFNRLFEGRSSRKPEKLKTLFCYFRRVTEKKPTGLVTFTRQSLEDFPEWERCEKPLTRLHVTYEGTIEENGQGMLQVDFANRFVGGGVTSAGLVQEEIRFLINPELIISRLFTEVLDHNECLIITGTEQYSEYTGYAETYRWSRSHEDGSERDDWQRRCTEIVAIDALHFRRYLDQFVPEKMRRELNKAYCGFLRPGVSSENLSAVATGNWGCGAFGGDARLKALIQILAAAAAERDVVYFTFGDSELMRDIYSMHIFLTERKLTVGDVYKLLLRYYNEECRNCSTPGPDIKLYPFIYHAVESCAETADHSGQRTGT
As to the kind of experiment: Nuclear PAR accumulation assay (immunofluorescence high-content imaging, MMS-treated HeLa cells). The assay is classed as cell-based. The note with it: 1 hour compound then MMS 50 μg/mL for an additional hour. How it is done: HeLa cells were plated at 15,000 cells/well in a 96-well plate the day before compound treatment and then treated with varying concentrations of test compound and incubated for 1 hour at 37° C.+5% CO2. Following test compound treatment, methylmethane sulfonate (MMS) was added to a final concentration of 50 μg/mL and the cells were incubated for an additional hour. Following treatment, the cells were fixed with ice cold 95% methanol and the plates sealed and placed at -20° C. for 15 minutes. The cells were then washed once with phosphate buffered saline (PBS) and permeabilized with 0.10% Triton-X 100 for 20 minutes at room temperature. […] The cells were then washed three times with PBS before incubation with a fluorescently conjugated goat anti-mouse antibody (Invitrogen A32723) diluted 1:500 in 5% FBS+0.1% Tween-20+PBS for 1 hour at room temperature. The cells were again washed three times with PBS and the nuclei labeled by incubating with 1 μg/mL DAPI (4′,6-diamidino-2-phenylindole). Nuclear PAR accumulation was evaluated using high-content fluorescence microscopy. Four fields for each well were acquired at 20× magnification resulting in at least 1,000 cells analyzed per well. […] Both the average intensity per nucleus and percent PAR positive cells were quantified. […] Concentration-response-curves and IC50 values were generated using four parameter logistic curve fit software.
Representative data for exemplary compounds is presented in Table 32, Table 33 and Table 34.
Usually IC50 stands for the midpoint of a concentration-inhibition curve. In turn, `C#CC1(C)CN=C2N(Cc3cnn(C)c3)C(=O)c3cc(S(=O)(=O)NC4(C)CC4)ccc3N21` (single isomer, unassigned) [Example 271, 1-ethynyl-1-methyl-4-((1-methyl-1H-pyrazol-4-yl)methyl)-N-(1-methylcyclopropyl)-5-oxo-1,2,4,5-tetrahydroimidazo[1,2-a]quinazoline-7-sulfonamide] displayed an IC50 of less than 100 nM.
In the case of `C#CC1(C)CN=C2N(Cc3cnn(C)c3)C(=O)c3cc(S(=O)(=O)NC4(C)CC4)ccc3N21` (single isomer, unassigned) [Example 272, 1-ethynyl-1-methyl-4-((1-methyl-1H-pyrazol-4-yl)methyl)-N-(1-methylcyclopropyl)-5-oxo-1,2,4,5-tetrahydroimidazo[1,2-a]quinazoline-7-sulfonamide], the IC50 is less than 100 nM.
To `C[C@@H]1CN=C2N(Cc3cnn(C)c3)C(=O)c3cc(S(=O)(=O)NC4(C)CC4)cc(C4CC4)c3N21` [Example 1, (R)-9-cyclopropyl-1-methyl-4-((1-methyl-1H-pyrazol-4-yl)methyl)-N-(1-methylcyclopropyl)-5-oxo-1,2,4,5-tetrahydroimidazo[1,2-a]quinazoline-7-sulfonamide] belongs less than 100 nM.
For the compound `C[C@@H]1CN=C2N(Cc3cnn(C)c3)C(=O)c3cc(S(=O)(=O)NC4(C)CC4)cc(N4CCC4)c3N21` [Example 2, (R)-9-(azetidin-1-yl)-1-methyl-4-((1-methyl-1H-pyrazol-4-yl)methyl)-N-(1-methylcyclopropyl)-5-oxo-1,2,4,5-tetrahydroimidazo[1,2-a]quinazoline-7-sulfonamide], the IC50 was less than 100 nM.
`Cn1cc(CN2C(=O)c3cc(S(=O)(=O)NC4(C)CC4)cc(Br)c3N3CC(C)(C)N=C23)cn1` [Example 3, 9-bromo-2,2-dimethyl-4-((1-methyl-1H-pyrazol-4-yl)methyl)-N-(1-methylcyclopropyl)-5-oxo-1,2,4,5-tetrahydroimidazo[1,2-a]quinazoline-7-sulfonamide]: the IC50 fell in the range of 100 to 1000 nM.
For `CN1CC=C(c2cc(S(=O)(=O)NC3(C)CC3)cc3c2N2CC(C)(C)N=C2N(Cc2cnn(C)c2)C3=O)CC1` [Example 4, 2,2-dimethyl-9-(1-methyl-1,2,3,6-tetrahydropyridin-4-yl)-4-((1-methyl-1H-pyrazol-4-yl)methyl)-N-(1-methylcyclopropyl)-5-oxo-1,2,4,5-tetrahydroimidazo[1,2-a]quinazoline-7-sulfonamide], the IC50 is less than 100 nM.
Regarding `CCc1noc(C)c1CN1C(=O)c2cc(S(=O)(=O)NC3(C)CC3)ccc2N2C1=NC[C@H]2C` [Example 5, (R)-4-((3-ethyl-5-methylisoxazol-4-yl)methyl)-1-methyl-N-(1-methylcyclopropyl)-5-oxo-1,2,4,5-tetrahydroimidazo[1,2-a]quinazoline-7-sulfonamide], the IC50 is less than 100 nM.
To `C[C@@H]1CN=C2N(Cc3cnn(C)c3)C(=O)c3cc(S(=O)(=O)NC4(C)CC4)cc(-c4ccc(F)cn4)c3N21` [Example 6, (R)-9-(5-fluoropyridin-2-yl)-1-methyl-4-((1-methyl-1H-pyrazol-4-yl)methyl)-N-(1-methylcyclopropyl)-5-oxo-1,2,4,5-tetrahydroimidazo[1,2-a]quinazoline-7-sulfonamide] belongs less than 100 nM.
The value for `COCc1nocc1CN1C(=O)c2cc(S(=O)(=O)NC3(C)CC3)ccc2N2C1=NC[C@H]2C` [Example 7, (R)-4-((3-(methoxymethyl)isoxazol-4-yl)methyl)-1-methyl-N-(1-methylcyclopropyl)-5-oxo-1,2,4,5-tetrahydroimidazo[1,2-a]quinazoline-7-sulfonamide] was 100 to 1000 nM; that for `Cc1noc(C2CC2)c1CN1C(=O)c2cc(S(=O)(=O)NC3(C)CC3)ccc2N2C1=NC[C@H]2C` [Example 8, (R)-4-((5-cyclopropyl-3-methylisoxazol-4-yl)methyl)-1-methyl-N-(1-methylcyclopropyl)-5-oxo-1,2,4,5-tetrahydroimidazo[1,2-a]quinazoline-7-sulfonamide] was less than 100 nM; that for `COc1ccc(CN2C(=O)c3cc(S(=O)(=O)NC4(C)CC4)ccc3N3C2=NC[C@H]3C)cc1` [Example 9, (R)-4-(4-methoxybenzyl)-1-methyl-N-(1-methylcyclopropyl)-5-oxo-1,2,4,5-tetrahydroimidazo[1,2-a]quinazoline-7-sulfonamide] was 100 to 1000 nM.
Turning to `C[C@@H]1CN=C2N(Cc3cnn(C)c3)C(=O)c3cc(S(=O)(=O)NC4(C)CC4)cc(N4CCN(C)CC4)c3N21` [Example 10, (R)-1-methyl-4-((1-methyl-1H-pyrazol-4-yl)methyl)-N-(1-methylcyclopropyl)-9-(4-methylpiperazin-1-yl)-5-oxo-1,2,4,5-tetrahy droimidazo[1,2-a]quinazoline-7-sulfonamide], the IC50 was less than 100 nM.
Consider `Cn1cc(CN2C(=O)c3cc(S(=O)(=O)NC4(C)CC4)cc(C4=CCCC4)c3N3CC(C)(C)N=C23)cn1` [Example 11, 9-(cyclopent-1-en-1-yl)-2,2-dimethyl-4-((1-methyl-1H-pyrazol-4-yl)methyl)-N-(1-methylcyclopropyl)-5-oxo-1,2,4,5-tetrahydroimidazo[1,2-a]quinazoline-7-sulfonamide], for which the IC50 is less than 100 nM.
Regarding `Cn1cc(CN2C(=O)c3cc(S(=O)(=O)NC4(C)CC4)cc(C4=CCOCC4)c3N3CC(C)(C)N=C23)cn1` [Example 12, 9-(3,6-dihydro-2H-pyran-4-yl)-2,2-dimethyl-4-((1-methyl-1H-pyrazol-4-yl)methyl)-N-(1-methylcyclopropyl)-5-oxo-1,2,4,5-tetrahydroimidazo[1,2-a]quinazoline-7-sulfonamide], the IC50 is less than 100 nM.
The value for `C[C@@H]1CN=C2N(Cc3cnn(C)c3)C(=O)c3cc(S(=O)(=O)NC4(C)CC4)cc(N4CCNCC4)c3N21` [Example 13, (R)-1-methyl-4-((1-methyl-1H-pyrazol-4-yl)methyl)-N-(1-methylcyclopropyl)-5-oxo-9-(piperazin-1-yl)-1,2,4,5-tetrahydroimidazo[1,2-a]quinazoline-7-sulfonamide] was 100 to 1000 nM; that for `[2H]C([2H])(c1cnn(C)c1)N1C(=O)c2cc(S(=O)(=O)NC3(C)CC3)ccc2N2C1=NC[C@H]2C#CC1CC1` [Example 14, (R)-1-(cyclopropylethynyl)-4-((1-methyl-1H-pyrazol-4-yl)methyl-d2)-N-(1-methylcyclopropyl)-5-oxo-1,2,4,5-tetrahydroimidazo[1,2-a]quinazoline-7-sulfonamide] was less than 100 nM.
Consider `[2H]C([2H])(c1cnn(C)c1)N1C(=O)c2cc(S(=O)(=O)NC3(C)CC3)cc(Br)c2N2C1=NC[C@H]2C#CC1CC1` [Example 15, (R)-9-bromo-1-(cyclopropylethynyl)-4-((1-methyl-1H-pyrazol-4-yl)methyl-d2)-N-(1-methylcyclopropyl)-5-oxo-1,2,4,5-tetrahydroimidazo[1,2-a]quinazoline-7-sulfonamide], for which the concentration for half-maximal inhibition (IC50) is less than 100 nM.
To `[2H]C([2H])(c1cnn(C)c1)N1C(=O)c2cc(S(=O)(=O)NC3(C)CC3)cc(Cl)c2N2C1=NC[C@H]2C#CC1CC1` [Example 16, (R)-9-chloro-1-(cyclopropylethynyl)-4-((1-methyl-1H-pyrazol-4-yl)methyl-d2)-N-(1-methylcyclopropyl)-5-oxo-1,2,4,5-tetrahydroimidazo[1,2-a]quinazoline-7-sulfonamide] belongs less than 100 nM.
